According to patent US5017619A, “Phenethanolamine derivatives” (Hoffmann-La Roche Inc., priority 1985, dated 1991):
Like-named read-outs stand apart in the source and are kept apart here.

Key:
male albino rats = assay: Activity on oxygen consumption; type: in vivo; settings: rat, per os, corrected for placebo group; for response vs control in vivo at 0.3 µM, 0.3 µmol/kg / response vs control in vivo at 1 µM, 1 µmol/kg / response vs control in vivo at 3 µM, 3 µmol/kg: po; for response vs control in vivo at 1 µM, 1 µmol/kg: 1 μM/kg; for response vs control in vivo at 3 µM, 3 µmol/kg: 3 μM/kg
Description: (1) Activity on oxygen consumption
Male albino rats weighing 160-180 g were placed in metabolic cages after fasting for 24 hours. The cages were ventilated with a constant 6 liter room air/minute which was equilibrated at a dew point of 11° C. Samples of the spent air were collected during periods of in each case 14 minutes after again equilbrating and the oxygen content and CO2 content were analyzed. After an adaptation time of 4 hours the animals, divided into groups of 6, received either placebo (5% gum arabic) or the test substance (suspended in 5% gum arabic) per os. Thereafter, the determinations were carried out for a period of 12 hours. In Table I there is given the percentage of the average oxygen consumption after medication during the first 3 hours and the entire test duration (12 hours) of the oxygen consumption of the adaptation period, corresponding corrections for variations in the placebo group having been taken into consideration.

[1] = tested on: female hyperglycaemic fat mice; assay: Activity on urine glucose and blood glucose and the formation of brown adipose tissue (obese-hyperglycaemic mice); type: in vivo; settings: oral, percentage of control value; for Blood glucose / Brown adipose tissue (weight of interscapular brown adipose tissue): end of 15-day test
Description: (2) Activity on urine glucose and blood glucose and the formation of brown adipose tissue
Female hyperglycaemic fat mice were adapted to an amount of feed limited to 3 g/day/animal. The test compounds (suspended in 5% gum arabic) or placebo (5% gum arabic) were administered orally twice daily during 15 days. Urine was collected for 6 days a week and urine glucose was determined. Blood glucose and the weight of the interscapular brown adipose tissue were determined at the end of the test.
The test results are given in Table II as a percentage of the control value.

[2] = tested on: streptozotocin-diabetic rats; assay: Activity on the urine glucose of streptozotocin-diabetic rats; type: in vivo, albino rats; settings: oral, 90 μM/kg per day, 2nd week of treatment
Description: (3) Activity on the urine glucose of streptozotocin-diabetic rats
A diabetes was produced in female albino rats (weight 130-140 g) by the subcutaneous injection of streptozotocin (70 mg/kg). The diabetic animals were adapted to an amount of feed limited to 15 g/day/animal. The test compound (suspended in 5% gum arabic) or placebo (5% gum arabic) was administered orally twice daily. The urine was collected for 6 days a week and urine glucose was determined. The urine glucose excretion of the treated animals during the 2nd week of treatment is given in Table III as a percentage of the control value.

[3] = 3 h, 0.3 μM/kg, 1st-3rd hour, read-out: O2 consumption, % of value of the pre-period, 1st-3rd hour
[4] = 12 h, 0.3 μM/kg, 1st-12th hour, read-out: O2 consumption, % of value of the pre-period, 1st-12th hour
[5] = 3 h, 1st-3rd hour, read-out: O2 consumption, % of value of the pre-period, 1st-3rd hour
[6] = 12 h, 1st-12th hour, read-out: O2 consumption, % of value of the pre-period, 1st-12th hour

For `CCOCCOc1ccc(C[C@@H](C)N(C[C@H](O)c2ccccc2)C[C@H](O)c2ccccc2)cc1` [Example 2a, α,α'-[[[(R)-p-(2-ethoxyethoxy)-α-methylphenethyl]imino]dimethylene]di-(R)-benzyl alcohol], the response vs control in vivo at 0.3 µM, 0.3 µmol/kg (male albino rats; [3]) was 152% and the response vs control in vivo at 0.3 µM, 0.3 µmol/kg (male albino rats; [4]) was 114%.
`C[C@H](Cc1ccc(OCCOCCc2ccc(F)cc2)cc1)N(C[C@H](O)c1ccccc1)C[C@H](O)c1ccccc1` [Example 2c] gave a response vs control in vivo at 1 µM, 1 µmol/kg (male albino rats; [5]) of 167% and a response vs control in vivo at 1 µM, 1 µmol/kg (male albino rats; [6]) of 122%.
With `CCOCCOc1ccc(C[C@@H](C)N(C[C@H](O)c2ccccc2)C[C@H](O)c2cccc(Cl)c2)cc1` [Example 10a1, 3-chloro-α,α'-[[[(R)-p-(2-ethoxyethoxy)-α-methylphenethyl]imino]dimethylene]di-(R)-benzyl alcohol] the response vs control in vivo at 0.3 µM, 0.3 µmol/kg (male albino rats; [3]) was 154% and the response vs control in vivo at 0.3 µM, 0.3 µmol/kg (male albino rats; [4]) was 117%.
`CCOCCOc1ccc(CCN(C[C@@H](O)c2cccc(Cl)c2)C[C@H](O)c2cccc(Cl)c2)cc1` [Example 11, (R)-m-chloro-α-[[[(S)-m-chloro-β-hydroxyphenethyl][p-(2-ethoxyethoxy)phenethyl]amino]methyl]benzyl alcohol] gave a response vs control in vivo at 3 µM, 3 µmol/kg (male albino rats; [5]) of 181% and a response vs control in vivo at 3 µM, 3 µmol/kg (male albino rats; [6]) of 140%.
In the case of `CCOCCOc1ccc(CCN(C[C@H](O)c2cccc(Cl)c2)C[C@H](O)c2cccc(Cl)c2)cc1` [Example 8d, α,α'-[[[p-(2-ethoxyethoxy)phenethyl]imino]dimethylene]bis[(R)-m-chlorobenzyl alcohol]], the response vs control in vivo at 3 µM, 3 µmol/kg (male albino rats; [5]) is reported as 172% and the response vs control in vivo at 3 µM, 3 µmol/kg (male albino rats; [6]) is reported as 147%.
Work on `C[C@H](Cc1ccc(OCCOCc2ccc(Oc3ccccc3)cc2)cc1)N(C[C@H](O)c1ccccc1)C[C@H](O)c1ccccc1` [Example 2e, α,α'-[[[(R)-α-methyl-p-[2-[(p-phenoxybenzyl)oxy]ethoxy]phenethyl]imino]dimethylene]di-(R)-benzyl alcohol] yielded a response vs control in vivo at 1 µM, 1 µmol/kg (male albino rats; [5]) of 145% and a response vs control in vivo at 1 µM, 1 µmol/kg (male albino rats; [6]) of 116%.
Compound `COCCOCCOc1ccc(C[C@@H](C)N(C[C@H](O)c2ccccc2)C[C@H](O)c2ccccc2)cc1` [Example 2b] has a response vs control in vivo at 1 µM, 1 µmol/kg (male albino rats; [5]) of 166% and a response vs control in vivo at 1 µM, 1 µmol/kg (male albino rats; [6]) of 119%.
With `CC(Cc1ccc(OCCOCCc2ccccc2)cc1)N(CC(O)c1cccc(Cl)c1)CC(O)c1cccc(Cl)c1` [Example 2g2, (R)-m-chloro-α-[[[(S)-m-chloro-β-hydroxyphenethyl][(R)-α-methyl-p-[2-phenethoxy)ethoxy]phenethyl]amino]-methyl]benzyl alcohol]] the response vs control in vivo at 1 µM, 1 µmol/kg (male albino rats; [5]) was 163%, the response vs control in vivo at 1 µM, 1 µmol/kg (male albino rats; [6]) was 131% and the “Urine glucose 1st week” value ([1]; 3 μM/Kg per day) was 17.7%. For the same compound, the “Urine glucose 2nd week” value ([1]; 3 μM/Kg per day) was 2.4%, the Blood glucose ([1]; 3 μM/Kg per day) was 38% and the “Brown adipose tissue (weight of interscapular brown adipose tissue)” value (from here on “Brown adipose tissue”) ([1]; 3 μM/Kg per day) was 157%. The “Urine glucose 1st week” value ([1]; 30 μM/Kg per day) was 1.6%, the “Urine glucose 2nd week” value ([1]; 30 μM/Kg per day) was 0.6% and the Blood glucose ([1]; 30 μM/Kg per day) was 33%. For the same compound, the “Brown adipose tissue” value ([1]; 30 μM/Kg per day) was 144% and the “Urine glucose 2nd week, % of controls” value [2] was 68%.
In the case of `C[C@H](Cc1ccc(OCCOCCc2ccccc2)cc1)N(C[C@H](O)c1ccccc1)C[C@H](O)c1ccccc1` [Example 1, α,α'-[[[(R)-α-methyl-p-[2-(phenethoxy)ethoxy]phenethyl]imino]dimethylene]di-(R)-benzyl alcohol], the response vs control in vivo at 1 µM, 1 µmol/kg (male albino rats; [5]) is reported as 147% and the response vs control in vivo at 1 µM, 1 µmol/kg (male albino rats; [6]) is reported as 117%.
Work on `C[C@H](Cc1ccc(OCCOCCc2ccccc2)cc1)N(C[C@@H](O)c1cccc(Cl)c1)C[C@@H](O)c1cccc(Cl)c1` [Example 2g3] yielded a response vs control in vivo at 3 µM, 3 µmol/kg (male albino rats; [5]) of 138% and a response vs control in vivo at 3 µM, 3 µmol/kg (male albino rats; [6]) of 119%.
In the case of `CCOCCOc1ccc(C[C@@H](C)N(C[C@@H](O)c2cccc(Cl)c2)C[C@H](O)c2ccccc2)cc1` [Example 10a2, (S)-m-chloro-α-[[[(R)-p-(2-ethoxyethoxy)-α-methylphenethyl][(R)-β-hydroxyphenethyl]amino]methyl]benzyl alcohol], the response vs control in vivo at 3 µM, 3 µmol/kg (male albino rats; [5]) is reported as 183% and the response vs control in vivo at 3 µM, 3 µmol/kg (male albino rats; [6]) is reported as 141%.
Work on `O[C@H](CN(CCc1ccc(OCCOCCc2ccccc2)cc1)C[C@H](O)c1cccc(Cl)c1)c1cccc(Cl)c1` [Example 12a, (R)-m-chloro-α-[[[(S)-m-chloro-β-hydroxyphenethyl]-[p-[2-(phenethoxy)ethoxy]phenethyl]amino]methyl]benzyl alcohol] yielded a response vs control in vivo at 1 µM, 1 µmol/kg (male albino rats; [5]) of 143% and a response vs control in vivo at 1 µM, 1 µmol/kg (male albino rats; [6]) of 116%.
`CCOCCOc1ccc(CCN(C[C@H](O)c2ccccc2)C[C@H](O)c2ccccc2)cc1` [Example 2f, α,α'-[[[p-(2-ethoxyethoxy)phenethyl]imino]dimethylene]di-(R)-benzyl alcohol] was tested, and the response vs control in vivo at 1 µM, 1 µmol/kg (male albino rats; [5]) was 142%, the response vs control in vivo at 1 µM, 1 µmol/kg (male albino rats; [6]) was 112% and the “Urine glucose 1st week” value ([1]; 9 μM/Kg per day) was 43%. The “Urine glucose 2nd week” value ([1]; 9 μM/Kg per day) was 33%, the Blood glucose ([1]; 9 μM/Kg per day) was 51% and the “Brown adipose tissue” value ([1]; 9 μM/Kg per day) was 158%. For the same compound, the “Urine glucose 1st week” value ([1]; 90 μM/Kg per day) was 4.8%, the “Urine glucose 2nd week” value ([1]; 90 μM/Kg per day) was 0.3% and the Blood glucose ([1]; 90 μM/Kg per day) was 34%. The “Brown adipose tissue” value ([1]; 90 μM/Kg per day) was 163%.
Compound `C[C@H](Cc1ccc(OCCOCCc2ccccc2)cc1)N(C[C@H](O)c1cccc(Cl)c1)C[C@H](O)c1cccc(Cl)c1` [Example 2g1, α,α'-[[[(R)-α-methyl-p-[2-(phenethoxy)ethoxy]phenethyl]imino]dimethylene]bis[(R)-m-chlorobenzyl alcohol]] has a response vs control in vivo at 0.3 µM, 0.3 µmol/kg (male albino rats; [3]) of 137% and a response vs control in vivo at 0.3 µM, 0.3 µmol/kg (male albino rats; [4]) of 117%.
For `COC(=O)C=CCOc1ccc(C[C@@H](C)N(C[C@H](O)c2ccccc2)C[C@H](O)c2ccccc2)cc1` [Example 4], the “O2 consumption, % of value of the pre-period, 1st-3rd hour” value (male albino rats; 0.3 μM/kg, 1st-3rd hour) was 123% and the “O2 consumption, % of value of the pre-period, 1st-12th hour” value (male albino rats; 0.3 μM/kg, 1st-12th hour) was 110%.
